Measured values from article PMC12254823 (Acta Pharmaceutica Sinica. B, 2025).
Where “and” joins values, the source holds several entries; their conditions need not be identical. Equal values may be shown once.

Experiments:
[1] = biological target: H1 PA-PB1 heterodimeric complex (Influenza A virus, UniProt P15659); format: biochemical
[2] = biological target: PA-C K643A (Influenza A virus, UniProt P15659, K643A); format: binding, influenza A virus (H1)

COc1ccc(NC(=S)NCc2cccc3cn[nH]c23)cc1OC [Compound 24, 1-[(1H-Indazol-7-yl)methyl]-3-(3,4-dimethoxyphenyl)thiourea]
PA-PB1 complex co-immunoprecipitated compared to DMSO control [1]: 53.5% ± 7.9% and 53.5%
Melting temperature (Tm) [2]: 50.2 ± 1.9 °C
